Test results taken from ChEMBL document CHEMBL5724806, “Unraveling interindividual differences and functional consequences of gut microbial metabolism of immunosuppressants” (2024).

What was measured:
Type in all cases: ADME
[1] = (§1) The drug is tested on Coprococcus comes strain: ATCC27758 for biotransformation under anaerobic condition. The drug concentrations were measured over 6 timepoints collected between 0 and 12 hours of incubation by liquid-chromatography-coupled mass spectrometry (LC–MS); parameters: dose 5 uM, timepoint 0, 1.5, 3, 6, 9, 12 hours; settings: 5 µM
[2] = The drug is tested on Bacteroides ovatus strain: ATCC 8483 for biotransformation under anaerobic condition. The drug concentrations were measured over 6 timepoints collected between 0 and 12 hours of incubation by liquid-chromatography-coupled mass spectrometry (LC–MS); parameters: dose 5 uM, timepoint 0, 1.5, 3, 6, 9, 12 hours; settings: 5 µM
[3] = as §1, with “the gut metagenome community of A-04 with ENA study accession number: PRJEB31790” for “Coprococcus comes strain: ATCC27758”, “7” for “6”; parameters: dose 5 uM, timepoint 0, 0.75, 1.5, 3, 6, 9, 12 hours; settings: 5 µM
[4] = as §1, with “the gut metagenome community of A-07 with ENA study accession number: PRJEB31790” for “Coprococcus comes strain: ATCC27758”, “7” for “6”; parameters: dose 5 uM, timepoint 0, 0.75, 1.5, 3, 6, 9, 12 hours; settings: 5 µM
[5] = as §1, with “the gut metagenome community of P-01 with ENA study accession number: PRJEB31790” for “Coprococcus comes strain: ATCC27758”, “microaerobic” for “anaerobic”, “7” for “6”; parameters: dose 5 uM, timepoint 0, 0.75, 1.5, 3, 6, 9, 12 hours; settings: 5 µM
[6] = (§2) The drug is tested on Alloscardovia omnicolens strain: DSM21503 for biotransformation under microaerobic condition. The drug concentrations were measured over 6 timepoints collected between 0 and 12 hours of incubation by liquid-chromatography-coupled mass spectrometry (LC–MS); parameters: dose 5 uM, timepoint 0, 1.5, 3, 6, 9, 12 hours; settings: 5 µM
[7] = The drug is tested on Lactobacillus fermentum strain: DSM20052 for biotransformation under microaerobic condition. The drug concentrations were measured over 6 timepoints collected between 0 and 12 hours of incubation by liquid-chromatography-coupled mass spectrometry (LC–MS); parameters: dose 5 uM, timepoint 0, 1.5, 3, 6, 9, 12 hours; settings: limosilactobacillus fermentum, 5 µM
[8] = The drug is tested on Lactobacillus reuteri strain: DSM20016 for biotransformation under anaerobic condition. The drug concentrations were measured over 6 timepoints collected between 0 and 12 hours of incubation by liquid-chromatography-coupled mass spectrometry (LC–MS); parameters: dose 5 uM, timepoint 0, 1.5, 3, 6, 9, 12 hours; settings: limosilactobacillus reuteri, 5 µM
[9] = The drug is tested on Ruminococcus gnavus strain: ATCC29149 for biotransformation under anaerobic condition. The drug concentrations were measured over 6 timepoints collected between 0 and 12 hours of incubation by liquid-chromatography-coupled mass spectrometry (LC–MS); parameters: dose 5 uM, timepoint 0, 1.5, 3, 6, 9, 12 hours; settings: mediterraneibacter gnavus, 5 µM
[10] = as §2, with “the gut metagenome community of A-05 with ENA study accession number: PRJEB31790” for “Alloscardovia omnicolens strain: DSM21503”, “7” for “6”; parameters: dose 5 uM, timepoint 0, 0.75, 1.5, 3, 6, 9, 12 hours; settings: 5 µM
[11] = as §1, with “the gut metagenome community of T-01 with ENA study accession number: PRJEB31790” for “Coprococcus comes strain: ATCC27758”, “7” for “6”; parameters: dose 5 uM, timepoint 0, 0.75, 1.5, 3, 6, 9, 12 hours; settings: 5 µM
[12] = as §2, with “the gut metagenome community of A-01 with ENA study accession number: PRJEB31790” for “Alloscardovia omnicolens strain: DSM21503”, “7” for “6”; parameters: dose 5 uM, timepoint 0, 0.75, 1.5, 3, 6, 9, 12 hours; settings: 5 µM
[13] = The drug is tested on Bacteroides xylanisolvens strain: HM 722 for biotransformation under anaerobic condition. The drug concentrations were measured over 6 timepoints collected between 0 and 12 hours of incubation by liquid-chromatography-coupled mass spectrometry (LC–MS); parameters: dose 5 uM, timepoint 0, 1.5, 3, 6, 9, 12 hours; settings: 5 µM
[14] = The drug is tested on Streptococcus salivarius strain: DSM20560 for biotransformation under anaerobic condition. The drug concentrations were measured over 6 timepoints collected between 0 and 12 hours of incubation by liquid-chromatography-coupled mass spectrometry (LC–MS); parameters: dose 5 uM, timepoint 0, 1.5, 3, 6, 9, 12 hours; settings: 5 µM
[15] = The drug is tested on Alloscardovia omnicolens strain: DSM21503 for biotransformation under anaerobic condition. The drug concentrations were measured over 6 timepoints collected between 0 and 12 hours of incubation by liquid-chromatography-coupled mass spectrometry (LC–MS); parameters: dose 5 uM, timepoint 0, 1.5, 3, 6, 9, 12 hours; settings: 5 µM
[16] = The drug is tested on Odoribacter splanchnicus strain: DSM20712 for biotransformation under anaerobic condition. The drug concentrations were measured over 6 timepoints collected between 0 and 12 hours of incubation by liquid-chromatography-coupled mass spectrometry (LC–MS); parameters: dose 5 uM, timepoint 0, 1.5, 3, 6, 9, 12 hours; settings: 5 µM
[17] = as §2, with “the gut metagenome community of A-07 with ENA study accession number: PRJEB31790” for “Alloscardovia omnicolens strain: DSM21503”, “7” for “6”; parameters: dose 5 uM, timepoint 0, 0.75, 1.5, 3, 6, 9, 12 hours; settings: 5 µM
[18] = The drug is tested on Streptococcus salivarius strain: DSM20560 for biotransformation under microaerobic condition. The drug concentrations were measured over 6 timepoints collected between 0 and 12 hours of incubation by liquid-chromatography-coupled mass spectrometry (LC–MS); parameters: dose 5 uM, timepoint 0, 1.5, 3, 6, 9, 12 hours; settings: 5 µM
[19] = as §2, with “the gut metagenome community of P-03 with ENA study accession number: PRJEB31790” for “Alloscardovia omnicolens strain: DSM21503”, “7” for “6”; parameters: dose 5 uM, timepoint 0, 0.75, 1.5, 3, 6, 9, 12 hours; settings: 5 µM
[20] = The drug is tested on Akkermansia muciniphila strain: DSM22959 for biotransformation under anaerobic condition. The drug concentrations were measured over 6 timepoints collected between 0 and 12 hours of incubation by liquid-chromatography-coupled mass spectrometry (LC–MS); parameters: dose 5 uM, timepoint 0, 1.5, 3, 6, 9, 12 hours; settings: 5 µM
[21] = as §2, with “the gut metagenome community of A-06 with ENA study accession number: PRJEB31790” for “Alloscardovia omnicolens strain: DSM21503”, “7” for “6”; parameters: dose 5 uM, timepoint 0, 0.75, 1.5, 3, 6, 9, 12 hours; settings: 5 µM
[22] = The drug is tested on Streptococcus mitis strain: DSM12643 for biotransformation under microaerobic condition. The drug concentrations were measured over 6 timepoints collected between 0 and 12 hours of incubation by liquid-chromatography-coupled mass spectrometry (LC–MS); parameters: dose 5 uM, timepoint 0, 1.5, 3, 6, 9, 12 hours; settings: 5 µM
[23] = The drug is tested on Eubacterium hallii strain: DSM3353 for biotransformation under anaerobic condition. The drug concentrations were measured over 6 timepoints collected between 0 and 12 hours of incubation by liquid-chromatography-coupled mass spectrometry (LC–MS); parameters: dose 5 uM, timepoint 0, 1.5, 3, 6, 9, 12 hours; settings: anaerobutyricum hallii, 5 µM
[24] = The drug is tested on Eubacterium eligens strain: DSM3376 for biotransformation under anaerobic condition. The drug concentrations were measured over 6 timepoints collected between 0 and 12 hours of incubation by liquid-chromatography-coupled mass spectrometry (LC–MS); parameters: dose 5 uM, timepoint 0, 1.5, 3, 6, 9, 12 hours; settings: lachnospira eligens, 5 µM
[25] = The drug is tested on Escherichia coli strain: DSM27469 for biotransformation under anaerobic condition. The drug concentrations were measured over 6 timepoints collected between 0 and 12 hours of incubation by liquid-chromatography-coupled mass spectrometry (LC–MS); parameters: dose 5 uM, timepoint 0, 1.5, 3, 6, 9, 12 hours; settings: 5 µM
[26] = The drug is tested on Clostridium ramosum strain: DSM1402 for biotransformation under anaerobic condition. The drug concentrations were measured over 6 timepoints collected between 0 and 12 hours of incubation by liquid-chromatography-coupled mass spectrometry (LC–MS); parameters: dose 5 uM, timepoint 0, 1.5, 3, 6, 9, 12 hours; settings: thomasclavelia ramosa, 5 µM
[27] = The drug is tested on Gemella morbillorum strain: DSM20572 for biotransformation under anaerobic condition. The drug concentrations were measured over 6 timepoints collected between 0 and 12 hours of incubation by liquid-chromatography-coupled mass spectrometry (LC–MS); parameters: dose 5 uM, timepoint 0, 1.5, 3, 6, 9, 12 hours; settings: 5 µM
[28] = The drug is tested on Gemella haemolysans strain: DSM107751 for biotransformation under anaerobic condition. The drug concentrations were measured over 6 timepoints collected between 0 and 12 hours of incubation by liquid-chromatography-coupled mass spectrometry (LC–MS); parameters: dose 5 uM, timepoint 0, 1.5, 3, 6, 9, 12 hours; settings: 5 µM
[29] = as §2, with “the gut metagenome community of P-04 with ENA study accession number: PRJEB31790” for “Alloscardovia omnicolens strain: DSM21503”, “7” for “6”; parameters: dose 5 uM, timepoint 0, 0.75, 1.5, 3, 6, 9, 12 hours; settings: 5 µM

Row | Bacterial Biotransformation [1] | Bacterial Biotransformation [2] | Bacterial Biotransformation [3] | Bacterial Biotransformation [4] | Bacterial Biotransformation [5] | Bacterial Biotransformation [6] | Bacterial Biotransformation [7] | Bacterial Biotransformation [8] | Bacterial Biotransformation [9] | Bacterial Biotransformation [10] | Bacterial Biotransformation [11] | Bacterial Biotransformation [12] | Bacterial Biotransformation [13] | Bacterial Biotransformation [14] | Bacterial Biotransformation [15] | Bacterial Biotransformation [16] | Bacterial Biotransformation [17] | Bacterial Biotransformation [18] | Bacterial Biotransformation [19] | Bacterial Biotransformation [20] | Compound | further results
1 | Compound NOT metabolized | Compound NOT metabolized | Compound NOT metabolized | Compound NOT metabolized | Compound NOT metabolized | Compound NOT metabolized | Compound NOT metabolized | Compound NOT metabolized | Compound NOT metabolized | Compound NOT metabolized | Compound NOT metabolized | Compound NOT metabolized | Compound NOT metabolized | Compound NOT metabolized | Compound NOT metabolized | Compound NOT metabolized | Compound NOT metabolized | Compound NOT metabolized | Compound NOT metabolized | Compound NOT metabolized | COc1c(C)c2c(c(O)c1C/C=C(\C)CCC(=O)O)C(=O)OC2 [MYCOPHENOLIC ACID] | Bacterial Biotransformation [21]: Compound NOT metabolized; Bacterial Biotransformation [22]: Compound NOT metabolized; Bacterial Biotransformation [23]: Compound NOT metabolized; Bacterial Biotransformation [24]: Compound NOT metabolized; Bacterial Biotransformation [25]: Compound NOT metabolized; Bacterial Biotransformation [26]: Compound NOT metabolized; Bacterial Biotransformation [27]: Compound NOT metabolized; Bacterial Biotransformation [28]: Compound NOT metabolized; Bacterial Biotransformation [29]: Compound NOT metabolized
2 | Compound NOT metabolized | Compound NOT metabolized | Compound metabolized | Compound metabolized | Compound metabolized | Compound NOT metabolized | Compound NOT metabolized | Compound NOT metabolized | Compound metabolized | Compound metabolized | Compound metabolized | Compound metabolized | Compound NOT metabolized | Compound NOT metabolized | Compound NOT metabolized | Compound NOT metabolized | Compound metabolized | Compound NOT metabolized | Compound metabolized | Compound NOT metabolized | C[C@]12CCC(=O)C=C1CC[C@@H]1[C@@H]2C(=O)C[C@@]2(C)[C@H]1CC[C@]2(O)C(=O)CO [CORTISONE] | Bacterial Biotransformation [21]: Compound metabolized; Bacterial Biotransformation [22]: Compound NOT metabolized; Bacterial Biotransformation [23]: Compound NOT metabolized; Bacterial Biotransformation [24]: Compound NOT metabolized; Bacterial Biotransformation [25]: Compound NOT metabolized; Bacterial Biotransformation [26]: Compound NOT metabolized; Bacterial Biotransformation [27]: Compound NOT metabolized; Bacterial Biotransformation [28]: Compound NOT metabolized; Bacterial Biotransformation [29]: Compound metabolized
3 | Compound NOT metabolized | Compound NOT metabolized | Compound metabolized | Compound metabolized | Compound NOT metabolized | Compound NOT metabolized | Compound NOT metabolized | Compound NOT metabolized | Compound NOT metabolized | Compound NOT metabolized | Compound NOT metabolized | Compound NOT metabolized | Compound NOT metabolized | Compound NOT metabolized | Compound NOT metabolized | Compound NOT metabolized | Compound metabolized | Compound NOT metabolized | Compound NOT metabolized | Compound NOT metabolized | C[C@H]1C[C@H]2[C@@H]3CCC4=CC(=O)C=C[C@]4(C)[C@@]3(F)[C@@H](O)C[C@]2(C)[C@@]1(O)C(=O)CO [BETAMETHASONE] | Bacterial Biotransformation [21]: Compound NOT metabolized; Bacterial Biotransformation [22]: Compound NOT metabolized; Bacterial Biotransformation [23]: Compound NOT metabolized; Bacterial Biotransformation [24]: Compound NOT metabolized; Bacterial Biotransformation [25]: Compound NOT metabolized; Bacterial Biotransformation [26]: Compound NOT metabolized; Bacterial Biotransformation [27]: Compound NOT metabolized; Bacterial Biotransformation [28]: Compound NOT metabolized; Bacterial Biotransformation [29]: Compound NOT metabolized
